Assay [1] relates to progesterone receptor (PR) in MCF-7 cells. Description: Western blot analysis of PR level in MCF-7 cells. Type of assay: cell-based, human. To be noted: MCF-7 cells treated for 9 days (FIG. 10). How it is done: In an analogous manner, a set of experiments was preformed with MCF-7 cells for determining the level of PR upon incubation with varying concentrations of 1,3-cPP for a period of up to 11 days. Similar to the augmentation observed for ER-α, an increase of up to 2.8 and 2.2 fold expression of the wild type PR (MW 98,000), was observed from 10 μM 1,3-cPP and upwards on days 8 and 11, respecively (FIGS. 3A-D).
(§1) Breast Cancer Cells. The human breast cancer MCF-7 cell line were obtained from Prof. Hadassa Degani, of Weizmann Institute of Science, Rehovot, Israel. The cells were grown as monolayers in high glucose DMEM supplemented with 6% fetal calf serum and combined antibiotics. Human breast cancer T47D cells, clones 8 (ER^loPR^lo) and 11 (ER^+PR^+) were obtained from Prof Iafa Keydar, Tel-Aviv university and were grown in DMEM supplemented with 10% fetakl calf serum antibiotics. K562 erythroleukemia cells were obtained from Dr. Alfa Peled of Weizmann Institute of Science, Rehovot, Israel. These cells were grown in RPMI 1640 containing 10% fetal calf serum and antibiotics. All lines were grown at 37° C. in the presence of 5% CO2. The absence of Mycoplasma contamination was monitored by a Mycotrim TC test (Irvine Scientific, Santa Ana, Calif.) carried out once every 3 months.
(§2) For ER-α protein analysis, MCF-7 and T47D cells were cultured in 60×15 mm petri dishes. From the second day of culture onward, the cells were treated with various concentrations of 1,3cPP for up to 14 days. At the end of the incubation period, the medium was aspirated and the cells were washed 3 times with cold (4° C.) PBS. […] The protein concentration in each sample (1.5-4 mg/ml) was determined using the Coomassie Protein Assay (Pierce, Rockford, Ill.) according to the manufacturer's instructions. […] Bound antibodies were detected by horseradish peroxidase-conjugated goat anti-rabbit IgG, (Transduction Laboratories, Lexington, Ky. using the ECL detection method. Band densities were quantified by densitometry (Biorad model GS-690 Imaging densitometer) using Molecular Analyst software.
In general terms: A western blot detects proteins with antibodies after separation by electrophoresis.

Assay [2] concerns Casein Kinase in MCF-7 cells. Description: Casein Kinase level in MCF-7 cells. The settings on record: MCF-7 cells treated for 9 days (FIG. 11). It counts as cell-based, human.
Assay [3] deals with estrogen receptor-α (ER-α) in MCF-7 cells. The assay is described as follows: Western blot analysis of ER-α level in MCF-7 cells. To be noted: MCF-7 cells treated for 9 days (FIG. 9). It counts as cell-based, human. The procedure:
Turning to FIG. 1 there are shown Western blot analyses showing the effect of 1,3cPP on the expression level of ER-α. In the ER-α assay, MCF-7 cells were incubated with 1-100 μM 1,3cPP for up to 14 days. The analysis indicates a relative increase in the level of wild type ER-α receptor (MW 70,000) with either an increase in 1,3cPP concentration or time of incubation. On days 6 and 14, a nearly 2-fold and 3-fold increase were observed, respectively (FIGS. 1A, C, D, F). […] This band could be related to one of deleted exons D3-4 (MW 49,000), D4 (MW 54,000), or D7 (MW 51,000) ER-α variants.
as §1
as §2, with “PBS. The cells were then gently scraped off using a rubber policeman in 0.25 ml of lysis buffer composed of 50 mM β-glycerophosphate, 1 mM DTT, 1.5 mM EGTA, 1 mM EDTA, 1% (Octylphenoxy)polyethoxyethanol (IGEPAL, Sigma, St. Louis, Mo.), a nonionic detergent, and a cocktail of protease inhibitors, including 1 mM phenylmethylsulfonyl fluoride (PMSF), 1 mM benzamidine, 10 μg/ml aprotinin, 10 μg/ml leupeptin, and 2 μg/ml pepstanin, as well as 1 mM sodium orthovanadate (Sigma, St. Louis, Mo.) as a phosphatase inhibitor.” for “PBS.”

The next assay concerns K562 cells. The procedure: It is known from the literature that sodium butyrate derives K562 cells into the erythroid differentiation program (Sutherland et al. 1986). Base on such an observation, the ability of 1,3-cPP alone or in combination with sodium butyrate may trigger the erythroid differentiation program manifested by hemoglobin production.
K562 cells were incubated for 5 days in the presence or absence of 10 or 50 μM 1,3cPP and 1 mM butyric acid as a differentiating agent. Quantitative measurements of hemoglobin production was determined by staining of lysed cells with benzidine-peroxide reagent. The benzidine-peroxide reagent was prepared by dissolving 3,3′,5,5′-tetramethyl benzidine in 90% acetic acid and mixing with an equal volume of freshly prepared 1% hydrogen peroxide. Cell lysate, obtained by hypotonic lysing of 5×10^4 cells in 0.1 ml distilled water, was added to 0.1 ml benzidine reagent and incubated at room temperature for 10 minutes in the dark. Absorbance was measured at 515 nm and was taken as a relative index of the hemoglobin level.

For `NC1(CO)COP(=O)(O)OC1` (stereo not shown) [Example 18, 5-Amino-5-hydroxymethyl-2-oxo-2λ5-[1,3,2]dioxaphosphi-nan-2-ol], in assay [1], the progestrone receptor level entry was “promotion of synthesis”. Further, the “Casein Kinase level” value in assay [2] is “promotion of Casein Kinase levels”. Also, the “Estrogen receptor alpha level” value in assay [3] is “promotion of synthesis”.
In the case of `CCCC(=O)[O-].[Na+]` [sodium butyrate, reference compound], in the assay on K562 cells, the hemoglobin synthesis entry is recorded as “only a small effect”.

These data come from patent US20060014726A1, “Derivatives of cyclic1, 3- propanediol phosphate and their action in differentiation therapy” (priority 2002, published 2006).
